Results as given in ChEMBL document CHEMBL4351009, “hERG optimizations of IMB1603, discovery of alternative benzothiazinones as new antitubercular agents” (Eur J Med Chem, 2019).
Values after ≈ are worked out from the molar mass of the structure shown.

Columns and labels:
[1] = system: Mycobacterium tuberculosis; assay: Antimycobacterial activity against multidrug resistance Mycobacterium tuberculosis 16883 clinical isolate assessed as reduction in bacterial cell viability incubated for 7 days by microplate alamar blue assay; assay type: functional; conditions: Mycobacterium tuberculosis, 16883, 168 h
[2] = system: Mycobacterium tuberculosis; assay: Antimycobacterial activity against multidrug resistance Mycobacterium tuberculosis 16995 clinical isolate assessed as reduction in bacterial cell viability incubated for 7 days by microplate alamar blue assay; assay type: functional; conditions: Mycobacterium tuberculosis, 16995, 168 h

Row | SMILES | MIC [1] [µM] | MIC [2] [µM]
1 | O=c1nc(N2CC3CCC2CN3Cc2ccc(F)cc2)sc2c([N+](=O)[O-])cc(C(F)(F)F)cc12 (stereo not given) | 0.062 (≈ 0.0307 µg/mL) | < 0.035
2 | O=c1nc(N2CCC3(CCN(c4ccc(F)cc4)C3)CC2)sc2c([N+](=O)[O-])cc(C(F)(F)F)cc12 | < 0.035 | < 0.035
3 | NNC(=O)c1ccncc1 [ISONIAZID] | > 40 | > 40
4 | O=c1nc(N2CCN(CC3CCCCC3)CC2)sc2c([N+](=O)[O-])cc(C(F)(F)F)cc12 [MACOZINONE] | < 0.035 | < 0.035
5 | CO[C@H]1/C=C/O[C@@]2(C)Oc3c(C)c(O)c4c(O)c(c(/C=N/N5CCN(C)CC5)c(O)c4c3C2=O)NC(=O)/C(C)=C\C=C\[C@H](C)[C@H](O)[C@@H](C)[C@@H](O)[C@@H](C)[C@H](OC(C)=O)[C@@H]1C [RIFAMPIN] | > 40 | > 40
